Consider 3 substances from US7521540B2, “CYR61 compositions and methods” (Munin Corporation, priority 1996, dated 2009).

Assay [1] deals with Limb mesenchymal cells. The note with it: 10 μg/ml, literature; cited from earlier work.
Assay [2] concerns 1064SK primary human foreskin fibroblasts. In words: Fibroblast adhesion assay (methylene blue, A620). Format: cell-based. The method, then: The ability of Cyr61 to mediate cell adhesion in normal fibroblasts was investigated. Microtiter wells were coated with purified recombinant Cyr61 protein, and 1064SK primary human foreskin fibroblasts were allowed to adhere under serum-free conditions. […] 50 μl cell suspensions were plated on microtiter wells coated with varying concentrations (0.5-5.0 μg/ml) of Cyr61 protein. After incubation at 37° C. for 30 minutes, adherent cells were fixed and stained with methylene blue.
In another experiment, microtiter wells were coated with either BSA, Cyr61 (2 μg/ml), or vitronectin (VN; 0.5 μg/ml) and blocked with affinity-purified anti-Cyr61 antibodies for one hour at 37° C. before 1064SK cells were plated.
The effects of divalent cations in cell adhesion to Cyr61 was also investigated. […] Data are means from triplicate determinations. […] Inhibition by Ca^2+ is characteristic of adhesion through some members of the β1 family of integrins, including receptors that bind type I collagen, laminin, and vitronectin (integrins α2β1, α6β1, and αVβ1) in fibroblasts, as well as the lymphocyte-specific integrin αLβ2.
The effects of RGD peptides on Cyr61-mediated fibroblast binding was tested by plating cells in wells coated with Cyr61 (2 μg/ml). Type I collagen (2 μg/ml) or vitronectin (0.5 μg/ml), 2 mM GRGDSP or GRGESP peptide was then added.
Cells were also pre-incubated with 40 μg/ml monoclonal antibodies against the integrin α5 or the integrin αV subunits at room temperature for 30 minutes, then plated on wells coated with Cyr61 (2 μg/ml), vitronectin (0.5 μg/ml) or fibronectin (FN, 1 μg/ml). […] The data are means, representative of three experiments.
The 1064 SK cells were also analyzed using the monoclonal antibody JBIA, which binds the β1 integrin subunit. Cells were pre-incubated with the antibody (50 μg/ml) before plating on microtiter wells coated with Cyr61 (2 μg/ml), Type I collagen (2 μg/ml), or vitronectin (0.5 μg/ml). […] Data are means, representative of three experiments.
To identify the specific β1 integrin that mediates fibroblast adhesion to Cyr61, the inhibitory effects of function-blocking monoclonal antibodies were tested against various integrin α subunits. […] The data are means, representative of at least three experiments.

The subject of assay [3] is Bovine aortic smooth muscle cells (BASM cells). In words: Smooth muscle cell adhesion assay. It counts as cell-based. As for the experimental part:
Cell adhesion assays were also performed on smooth muscle cells. Bovine aortic smooth muscle cells (BASM cells) were subjected to the cell adhesion assay described above in the context of assaying fibroblasts. […] To identify particular integrin, receptors mediating the Cyr61 induction of BASM cell adhesion, antibody studies were conducted using anti-integrin antibodies recognizing specific integrins. […] Thus, integrin α6β1 mediates Cyr61-induced adhesion of smooth muscle cells. It is expected that Cyr61 polypeptides that include the heparan binding domain IV will induce adhesion of any mammalian smooth muscle cell.

For another assay, the system named is HUVE cells. In words: HUVE cell attachment to murine Cyr61-coated plates. It counts as cell-based, human. The method, then:
Another embodiment of the invention is directed to the use of Cyr61 to mediate cellular attachment to the extracellular matrix. Induction of cellular adhesion was investigated using murine Cyr61, fibronectin, and bovine serum albumin (BSA). Immunological 96-well plates (Falcon brand) were coated with 50 μl of 0.1% BSA in PBS at 4° C. in the presence of 0-30 μg/ml concentrations of murine Cyr61 or fibronectin. After two hours exposure to the coating solution, non-diluted immune or pre-immune antisera (30 μl/well), or affinity-purified anti-Cyr61 antibodies were added. For some wells, the coating mixture was adjusted to 10 mM DTT or 100 mM HCl. After 16 hours incubation, the coating solution was removed and the well surface was blocked with 1% BSA in phosphate-buffered saline (PBS) for 1 hour at room temperature. HUVE cells were plated in Ham's complete F12K medium [GIBCO-BRL, Inc.; Ham, Proc. Natl. Acacd. Sci. (USA) 53:786 (1965)] at 5×10^3-10^4 cells/well. Cycloheximide was added to 100 μg/ml immediately before plating and monensin was added to 1 μM 14 hours before plating. After a 2-hour incubation at 37° C., the wells were washed with PBS and attached cells were fixed and stained with methylene blue. The attachment efficiency was determined by quantitative dye extraction and measurement of the extract absorbance at 650 nm. Oliver et al., J. Cell. Sci. 92:513-518 (1989).

In assay [4] the test system is Limb mesenchymal cells. Put plainly: Limb bud mesenchymal cell attachment. The note with it: within 1 hour of plating. Format: cell-based, mouse. As for the experimental part: Cyr61, fibronectin (Gibco), or tenascin (Gibco) were diluted in 0.1% protease-free bovine serum albumin (BSA) in PBS with 0.5 mM PMSF, to a final concentrations of 10 or 50 μg/ml. A 10 μl drop/well was placed in a non-tissue culture treated 24-well plate (Corning), and incubated at room temperature for 2 hours. The wells were blocked with 1% BSA in PBS for 1 hour at room temperature, and rinsed with serum-free MEM (Modified Eagle's Medium). Limb mesenchymal cells, suspended at 5×10^5 cell/ml in serum-free MEM, were added at a volume of 400 μl/well, and incubated at 37° C., 5% CO2 for 1 or 3 hours. At each time point, the cell suspension was removed, the wells were rinsed with MEM and the remaining adherent cells were photographed.

The test system of assay [5] is endothelial cells. The conditions noted are these: thrombospondin on endothelial cells; fibronectin cell type not stated; cited from earlier work.
Assay [6] relates to fibroblasts. Put plainly: Adhesion to immobilized peptides or GST-domain fusions, fibroblasts. Format: cell-based. The conditions noted are these: no immobilized Cyr61. The text has this:
(§1) To further localize domains involved in angiogenesis, including endothelial cell migration, the coding regions for domains I, II and III of Cyr61 were separately fused to a coding sequence for glutathione S-transferase (GST), again using conventional technology. The individual fusion constructs were introduced into bacterial hosts, expressed, and purified with glutathione columns, using conventional techniques.
(§2) To confirm that the TSP1 peptide was inhibiting Cyr61 activity by directly interacting with the α6β1, integrin, TSP1 and the peptides collectively having SEQ ID NOS:34-38 were used in the aforementioned cell adhesion assay in the absence of immobilized Cyr61. In these assays, wells were coated with one of the peptides and the immobilized peptides were then separately exposed to either endothelial cells (resting or activated) or fibroblasts. […] None of the other tested peptides (having SEQ ID NOS:34-38, collectively) supported cell adhesion in these assays. However, it is expected that peptides comprising sequences from domain II (von Willebrand Factor domain) of Cyr61 will inhibit the interaction between Cyr61 and the αVβ3 integrin receptor, thereby inhibiting the participation of endothelial cells in the process of angiogenesis. […]

Assay [7] relates to endothelial cells. In words: Peptide inhibition of cell adhesion to Cyr61, endothelial cells. Format: cell-based. An excerpt:
(§3) To localize the relevant domain still further, several overlapping peptides were synthesized. The peptides, each having a sequence set forth in one of SEQ ID NOS:33-38, show significant similarity to an ECM signaling molecule such as mouse Cyr61 (SEQ ID NO:2) or human Cyr61 (SEQ ID NO:4). These peptides were then separately tested for their capacities to inhibit Cyr61 adhesion to endothelial cells or fibroblasts. Peptides were separately added at various concentrations to Cyr61-coated wells containing endothelial cells or fibroblasts, as described above. The peptide designated TSP1 (SEQ ID NO:33) inhibited Cyr61 adhesion to endothelial cells or fibroblasts at concentrations of 25 μM or higher.
To determine if TSP1 was selectively inhibiting Cyr61 binding to […] or α6β1, two integrins found on endothelial cells that bind Cyr61, specific monoclonal antibody blocking studies were performed. These studies involved the separate addition of monoclonal antibody GoH3 (α6-specific, including α6β1; see Example 29) or LM609 ([…]; see Example 29) to cells prior to addition of the mixture to Cyr61-coated wells in the presence or absence of the peptide under study.

The subject of assay [8] is fibroblasts. In words: Peptide inhibition of cell adhesion to Cyr61, fibroblasts. The note with it: Cyr61-coated wells. It counts as cell-based.
Excerpt: as §3

For assay [9], the system named is endothelial cells. Put plainly: Matrigel tubule formation assay. Format: cell-based. The method, then: Endothelial cells interacting with Cyr61 require integrin αVβ3 for cell migration and cell survival. However, to form tubules in vitro in a matrigel, integrin α6β1 is required. Thus, the ability of TSP1 to inhibit tubule formation in vitro using a matrigel assay as described in Example 15 (and as known in the art, Davis et al., Exp. Cell Research 216:113-123 (1995), incorporated herein by reference in its entirety) was performed.

For assay [10], the system named is endothelial cells. Put plainly: Adhesion to immobilized peptides or GST-domain fusions, endothelial cells. Format: cell-based. The note with it: no immobilized Cyr61.
Excerpt: as §1, §2

Where “and” joins values, the source holds several entries; their conditions need not be identical. Identical values can stand only once.

Take heparin: the “increase of chondrogenesis in micromass cultures” value in the assay on Limb mesenchymal cells [1] is on record as 2 fold. In addition, the “levels having no effect on cell adhesion to fibronectin” value in [2] (fibronectin 1 μg/ml) was “up to 1000 μg/ml”. Besides, in [2] (soluble, in cell suspension), the “level completely inhibiting cell adhesion to Cyr61” value was at least 0.1 µg/mL and the “level that detectably inhibited binding to Cyr61” value was found to be 1 ng/mL. Besides, in assay [3], the “effect of agent on Cyr61-induced BASM cell adhesion” value is given as “inhibited Cyr61-induced adhesion”.

fibronectin: the “1064SK adhesion to coated protein, nothing added” value in assay [2] (Cyr61 2, VN 0.5, Type I collagen 2, fibronectin 1, laminin 5 μg/ml) was 0.72 A620 and 0.74 A620. Also, the “HUVE cell attachment, A650” value is listed as 0.1 A650 in the assay on HUVE cells (coating 1 μg/ml) and 0.9 A650 with HUVE cells (coating 30 μg/ml). The “attachment morphology of limb mesenchymal cells” value in the assay with Limb mesenchymal cells [4] is “attached uniformly and started to spread”. Besides, the “concentration with chemotactic effect” value with endothelial cells [5] was 1 to 30 µg/mL.

Turning to “H 2N-GQKCIVQTTSWSQCSKS-CO2H (H-GQKCIVQTTSWSQCSKS-OH; cysteine pairing not given here) [TSP1]”, the “adhesion of fibroblasts to immobilized peptide or fusion” value in the assay on fibroblasts [6] was “supported adhesion of endothelial cells and fibroblasts”. In addition, in the assay on endothelial cells [7] (Cyr61-coated wells), the “concentration inhibiting Cyr61 adhesion to endothelial cells” value was at least 25 µM. Besides, in the assay on endothelial cells [7] (GoH3/LM609 blocking studies), the “effect on Cyr61 binding to the α6β1 integrin” value is recorded as “inhibitied Cyr61 binding to the α6β1 integrin” and the “effect on Cyr61 binding to αVβ3” value is given as “did not inhibit Cyr61 binding to αVβ3”. Besides, the “concentration inhibiting Cyr61 adhesion to fibroblasts” value in the assay with fibroblasts [8] was at least 25 µM. In the assay on endothelial cells [9], the “tubule formation in matrigel” value was “inhibited tubule formation”. For the same substance, the “adhesion of endothelial cells to immobilized peptide or fusion” value in the assay with endothelial cells [10] is “supported adhesion of endothelial cells and fibroblasts”.
